Data reported in ChEMBL document CHEMBL1156970, “Endoxifen is a new potent inhibitor of PKC: a potential therapeutic agent for bipolar disorder” (Bioorg Med Chem Lett, 2010).
Activity calls are given as the source filed them. The calls are words filed in the database; no cut-off is given here.

Columns and labels:
[1] = Inhibition of PKC at 0.025 to 0.05 mM after 90 mins by ELISA
[2] = Inhibition of PKC at 0.1 mM after 90 mins by ELISA
[3] = Inhibition of PKC at 0.2 mM after 90 mins by ELISA
[4] = Inhibition of PKC at 0.025 mM after 90 mins by ELISA
Rattus norvegicus = test: Toxicity in rat at 4 mg/kg, po after 28 days; assay type: organism-based; set-up: dose 4 mg/kg, route oral; conditions: in vivo, 672 h
Mus musculus = test: Toxicity in mouse at 8 mg/kg, po after 28 days; assay type: organism-based; set-up: dose 8 mg/kg, route oral; conditions: in vivo, 672 h
[5] = Inhibition of PKC after 90 mins by ELISA

Row | inhibition [1] | inhibition [2] | inhibition [3] | inhibition [4] | inhibition [5] | Compound | Activity (Rattus norvegicus) | Activity (Mus musculus)
1 | inactive | 14% | 25% |  |  | CC/C(=C(\c1ccccc1)c1ccc(OCCN(C)C)cc1)c1ccccc1 |  | 
2 |  |  | 78% | 12% | Dose-dependent effect | CC/C(=C(\c1ccc(O)cc1)c1ccc(OCCNC)cc1)c1ccccc1 [ENDOXIFEN] | Non-toxic | Non-toxic
